This is an account of results in ChEMBL document CHEMBL1156576, “Determination of log D via automated microfluidic liquid-liquid extraction” (J Med Chem, 2008).

Series [1] in a line: physchem. Particulars: buffer, pH 7.4.
The nature of series [2]: physchem. Particulars: buffer, pH 7.4. This is another data set of the same source.
The conditions of series [3]: buffer, pH 7.4.
The conditions of series [4]: buffer, pH 7.4. This is another data set of the same source.

On to `CC(C)N(CC[C@](C(N)=O)(c1ccccc1)c1ccccn1)C(C)C` [(S)-DISOPYRAMIDE], for which the logD in series [1] was determined as 0.52; in series [2], 0.39.
For `CC(=O)Nc1ccc(O)cc1` [ACETAMINOPHEN] the same measures were 0.33 and 0.27.
In the case of `CN(C)CCC(c1ccc(Cl)cc1)c1ccccn1` (stereo not drawn) [CHLORPHENIRAMINE], the logD in series [3] is on record as 0.28; in series [4], 0.26.
For the compound `NS(=O)(=O)c1cc(C2(O)NC(=O)c3ccccc32)ccc1Cl` (stereo not drawn) [CHLORTHALIDONE], the logD in series [1] stood at 0.94; in series [2] it was 0.85.
As to `CN/C(=N/CCSCc1nc[nH]c1C)NC#N` [CIMETIDINE], the logD in series [1] was determined as 0.34; in series [2] it was 0.29.
For `CC(=O)OCC(=O)[C@@]1(O)CC[C@H]2[C@@H]3CCC4=CC(=O)CC[C@]4(C)[C@H]3[C@@H](O)C[C@@]21C` [HYDROCORTISONE ACETATE] the same measures were 2.21 and 2.11.
For the compound `CCN(CC)CCNC(=O)c1ccc(N)cc1` [PROCAINAMIDE], the results for the logD in series [1] and in series [2] were -0.89 and -0.94, respectively.
On to `CNC(=C[N+](=O)[O-])NCCSCc1ccc(CN(C)C)o1` [RANITIDINE], for which the logD was -0.91 in series [1] and -0.99 in series [2].
As for `CCN(CC)CCNC(=O)c1cc(S(C)(=O)=O)ccc1OC` [TIAPRIDE], the values for the logD in series [1] and in series [2] were -0.85 and -0.9, respectively.
